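The compound was tested at five concentrations on cells cultured in 96-well plates, with a 48-hour exposure period. GI50 is the concentration that inhibits growth by half.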 Calls of active or inactive are those of the source. Cut-off read from the data, not from the text of the source: active = GI50 up to about 1.1 µM and inactive = higher.
How the values were obtained:
Assay in all cases: NCI-60 cell line screen, 48 h
A549 = test system: A549
BT-549 = test system: BT-549
EKVX = test system: EKVX
HCC 2998 = test system: HCC 2998
HCT-15 = test system: HCT-15
IGROV-1 = test system: IGROV-1
K562 = test system: K562
MCF7 = test system: MCF7
NCI-H522 = test system: NCI-H522
OVCAR-4 = test system: OVCAR-4
RPMI-8226 = test system: RPMI-8226
RXF 393 = test system: RXF 393
SF-268 = test system: SF-268
SK-MEL-5 = test system: SK-MEL-5
SK-OV-3 = test system: SK-OV-3
SW-620 = test system: SW-620
HL-60 = test system: HL-60
LOX IMVI = test system: LOX IMVI
HOP-92 = test system: HOP-92
SR = test system: SR

SMILES	GI50 (A549)	GI50 (BT-549)	GI50 (EKVX)	GI50 (HCC 2998)	GI50 (HCT-15) [µM]	GI50 (IGROV-1)	GI50 (K562)	GI50 (MCF7)	GI50 (NCI-H522)	GI50 (OVCAR-4)	GI50 (RPMI-8226)	GI50 (RXF 393)	GI50 (SF-268)	GI50 (SK-MEL-5)	GI50 (SK-OV-3)	GI50 (SW-620)	GI50 (HL-60)	GI50 (LOX IMVI)	GI50 (HOP-92)	GI50 (SR)
CC(C)(CC#N)c1cc(CC(C)(C)c2cc(CC(C)(C)c3cc(C(C)(C)C4(C)OCCO4)no3)no2)no1	> 100 µM (inactive)	52.5 µM (inactive)	33 µM (inactive)	> 100 µM (inactive)	94.2	54.1 µM (inactive)	> 100 µM (inactive)	19.1 µM (inactive)	24.6 µM (inactive)	23.5 µM (inactive)	> 100 µM (inactive)	7.89 µM (inactive)	39.4 µM (inactive)	75.7 µM (inactive)	27.1 µM (inactive)	> 100 µM (inactive)	–	–	–	–
CCN(CC)CCSc1nc(-c2c[nH]c3nc(C)ccc3c2=O)n[nH]1	> 100 µM (inactive)	> 100 µM (inactive)	> 100 µM (inactive)	–	> 100	> 100 µM (inactive)	> 100 µM (inactive)	> 100 µM (inactive)	> 100 µM (inactive)	> 100 µM (inactive)	> 100 µM (inactive)	> 100 µM (inactive)	> 100 µM (inactive)	> 100 µM (inactive)	–	> 100 µM (inactive)	> 100 µM (inactive)	> 100 µM (inactive)	–	–
CC1=NN(c2ccccc2)C(=O)C1=C1SCCCS1	25.4 µM (inactive)	–	30.1 µM (inactive)	37 µM (inactive)	31.9	30.2 µM (inactive)	21.1 µM (inactive)	–	18.1 µM (inactive)	–	19.7 µM (inactive)	28.5 µM (inactive)	44 µM (inactive)	31.2 µM (inactive)	46.3 µM (inactive)	13.2 µM (inactive)	19.5 µM (inactive)	23.6 µM (inactive)	25.5 µM (inactive)	14.3 µM (inactive)
O=S1(=O)NN=C(NCc2ccc(Cl)c(Cl)c2)c2ccccc21	> 100 µM (inactive)	–	> 100 µM (inactive)	> 100 µM (inactive)	36	> 100 µM (inactive)	12 µM (inactive)	–	–	> 100 µM (inactive)	11.5 µM (inactive)	19.8 µM (inactive)	> 100 µM (inactive)	86.9 µM (inactive)	–	91.2 µM (inactive)	26.5 µM (inactive)	40.2 µM (inactive)	50.1 µM (inactive)	15.6 µM (inactive)
COc1c(C(=O)/C(=N/Nc2ccccc2)C(C)=O)c(O)c(OC)c2occc12	52.6 µM (inactive)	–	22.2 µM (inactive)	82.4 µM (inactive)	56.2	67.9 µM (inactive)	53.5 µM (inactive)	25.4 µM (inactive)	41.8 µM (inactive)	> 100 µM (inactive)	17.2 µM (inactive)	13.7 µM (inactive)	> 100 µM (inactive)	13.7 µM (inactive)	65.2 µM (inactive)	77.8 µM (inactive)	22.6 µM (inactive)	45.9 µM (inactive)	9.38 µM (inactive)	35.8 µM (inactive)
CC(=O)/C(=C/N1C(=O)CC(=O)NC1=S)C(=O)Nc1ccccc1C	34.8 µM (inactive)	> 100 µM (inactive)	38.5 µM (inactive)	29.4 µM (inactive)	42.5	91 µM (inactive)	–	60.4 µM (inactive)	–	57.5 µM (inactive)	–	78.3 µM (inactive)	35.1 µM (inactive)	57.9 µM (inactive)	> 100 µM (inactive)	32.8 µM (inactive)	49 µM (inactive)	> 100 µM (inactive)	> 100 µM (inactive)	–
Cc1ccc(S(=O)(=O)Nn2c(O)c(C#N)c(-c3ccc([N+](=O)[O-])cc3)c(C#N)c2=O)cc1	> 100 µM (inactive)	> 100 µM (inactive)	> 100 µM (inactive)	> 100 µM (inactive)	> 100	> 100 µM (inactive)	> 100 µM (inactive)	> 100 µM (inactive)	> 100 µM (inactive)	> 100 µM (inactive)	–	> 100 µM (inactive)	> 100 µM (inactive)	> 100 µM (inactive)	> 100 µM (inactive)	> 100 µM (inactive)	> 100 µM (inactive)	> 100 µM (inactive)	> 100 µM (inactive)	–
CC(C)(CO)CNc1nc(N)nc(Cl)c1N	> 100 µM (inactive)	> 100 µM (inactive)	> 100 µM (inactive)	> 100 µM (inactive)	> 100	> 100 µM (inactive)	> 100 µM (inactive)	> 100 µM (inactive)	> 100 µM (inactive)	> 100 µM (inactive)	–	> 100 µM (inactive)	> 100 µM (inactive)	95.1 µM (inactive)	> 100 µM (inactive)	> 100 µM (inactive)	–	> 100 µM (inactive)	> 100 µM (inactive)	–
O=C(Nc1ccc(C(F)(F)F)cc1)NC(F)(F)F	> 100 µM (inactive)	> 100 µM (inactive)	> 100 µM (inactive)	> 100 µM (inactive)	> 100	> 100 µM (inactive)	> 100 µM (inactive)	–	–	–	> 100 µM (inactive)	> 100 µM (inactive)	> 100 µM (inactive)	> 100 µM (inactive)	> 100 µM (inactive)	> 100 µM (inactive)	> 100 µM (inactive)	> 100 µM (inactive)	–	> 100 µM (inactive)
CCCCCCCCCCCCN(O)C(=O)c1ccccc1	24.4 µM (inactive)	–	25.9 µM (inactive)	30.3 µM (inactive)	9.64	37.8 µM (inactive)	18.9 µM (inactive)	–	25.6 µM (inactive)	–	15.1 µM (inactive)	35.2 µM (inactive)	15.1 µM (inactive)	> 10 µM (inactive)	43.1 µM (inactive)	34 µM (inactive)	19.1 µM (inactive)	20.5 µM (inactive)	17.7 µM (inactive)	8.26 µM (inactive)
CCc1cc(-c2nsc(=O)o2)c(S(=O)(=O)CC)s1	> 100 µM (inactive)	–	> 100 µM (inactive)	37.2 µM (inactive)	52.7	34 µM (inactive)	37.2 µM (inactive)	26.7 µM (inactive)	22.2 µM (inactive)	> 100 µM (inactive)	49.4 µM (inactive)	–	86.9 µM (inactive)	> 100 µM (inactive)	> 100 µM (inactive)	61 µM (inactive)	0.951 µM (active)	56.6 µM (inactive)	98.9 µM (inactive)	38.3 µM (inactive)
N#C/C(=C/NC(=S)c1ccncc1)C(N)=O	> 100 µM (inactive)	> 100 µM (inactive)	> 100 µM (inactive)	> 100 µM (inactive)	> 100	> 100 µM (inactive)	–	> 100 µM (inactive)	–	> 100 µM (inactive)	–	> 100 µM (inactive)	> 100 µM (inactive)	> 100 µM (inactive)	> 100 µM (inactive)	> 100 µM (inactive)	> 100 µM (inactive)	> 100 µM (inactive)	> 100 µM (inactive)	–
CSC1=N/C(=C\c2ccccc2)C(=O)N1CN1CCCCC1	87.7 µM (inactive)	–	51.1 µM (inactive)	–	> 10	38.7 µM (inactive)	26.7 µM (inactive)	24.6 µM (inactive)	42.3 µM (inactive)	16.4 µM (inactive)	27.4 µM (inactive)	–	55.5 µM (inactive)	43.1 µM (inactive)	> 100 µM (inactive)	44.4 µM (inactive)	–	38.5 µM (inactive)	11.7 µM (inactive)	31.3 µM (inactive)
CC(O)CC(O)(C(F)(F)F)C(F)(F)F (stereo not given)	> 10 µM (inactive)	–	> 10 µM (inactive)	> 10 µM (inactive)	> 10	> 10 µM (inactive)	> 10 µM (inactive)	> 10 µM (inactive)	> 10 µM (inactive)	> 10 µM (inactive)	> 10 µM (inactive)	> 10 µM (inactive)	> 10 µM (inactive)	> 10 µM (inactive)	> 10 µM (inactive)	> 10 µM (inactive)	> 10 µM (inactive)	> 10 µM (inactive)	–	> 10 µM (inactive)
Cc1cccc(-c2cc(O)c3c(C)ccnc3n2)c1	0.71 µM (active)	> 100 µM (inactive)	0.935 µM (active)	1.03 µM (active)	0.261	0.681 µM (active)	0.139 µM (active)	0.319 µM (active)	0.247 µM (active)	8.41 µM (inactive)	0.468 µM (active)	0.455 µM (active)	10 µM (inactive)	0.269 µM (active)	0.53 µM (active)	0.169 µM (active)	0.166 µM (active)	0.667 µM (active)	–	–
O=c1c2ccccc2sc2ccccc12	> 100 µM (inactive)	> 100 µM (inactive)	> 100 µM (inactive)	> 100 µM (inactive)	> 100	> 100 µM (inactive)	> 100 µM (inactive)	> 100 µM (inactive)	> 100 µM (inactive)	> 100 µM (inactive)	> 100 µM (inactive)	> 100 µM (inactive)	> 100 µM (inactive)	> 100 µM (inactive)	> 100 µM (inactive)	> 100 µM (inactive)	> 100 µM (inactive)	> 100 µM (inactive)	> 100 µM (inactive)	–
S=c1[nH]c(Cl)cc2nc(Cl)cn12	20.2 µM (inactive)	9.89 µM (inactive)	2.25 µM (inactive)	8.79 µM (inactive)	4.68	4.34 µM (inactive)	–	3.13 µM (inactive)	1.57 µM (inactive)	6.14 µM (inactive)	16.1 µM (inactive)	2.84 µM (inactive)	5.11 µM (inactive)	2.95 µM (inactive)	2.93 µM (inactive)	6.68 µM (inactive)	–	7.85 µM (inactive)	17.5 µM (inactive)	–

Source: ChEMBL document CHEMBL1201862, “PubChem BioAssay data set” (2004)
